The results in this text go back to article PMC6934184, “Selective DNA-PKcs inhibition extends the therapeutic index of localized radiotherapy and chemotherapy” (The Journal of Clinical Investigation, 2019).

The test concerns the target T1, MAP2K3 (MEK3) (Homo sapiens, UniProt P46734).
T1 construct: purchased Thermo Fisher Scientific (Life Technologies) SelectScreen
Description: SelectScreen LanthaScreen. Format: binding. Conditions: read-out: % displacement. In a few lines:
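Percent values come from Thermo SelectScreen profiling of NU5455, combining activity and binding assays. CSF1R was run in Z'LYTE format at Km app ATP, and CAMK1 in Adapta format with ATP listed at 10.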
For orientation: Time-resolved FRET reads energy transfer from a long-lived donor to a nearby acceptor.

T1 sequence (P46734 whole entry): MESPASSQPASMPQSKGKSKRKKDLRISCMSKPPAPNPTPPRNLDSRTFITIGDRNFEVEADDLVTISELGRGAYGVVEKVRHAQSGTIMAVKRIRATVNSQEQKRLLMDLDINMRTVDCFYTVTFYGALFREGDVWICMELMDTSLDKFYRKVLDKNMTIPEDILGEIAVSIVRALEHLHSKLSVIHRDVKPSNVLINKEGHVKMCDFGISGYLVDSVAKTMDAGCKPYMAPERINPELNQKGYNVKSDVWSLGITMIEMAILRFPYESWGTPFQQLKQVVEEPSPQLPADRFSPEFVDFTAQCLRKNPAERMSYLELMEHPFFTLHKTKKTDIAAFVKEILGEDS

Take `CN(C(=O)CN1CCOCC1)c1ccc2sc3c(-c4cccc5c(=O)cc(N6CC7CCC(C6)O7)oc45)cccc3c2c1` [NU5455]: the inhibition at 1 µM is 1.6%.
